# Measurements taken from PubChem BioAssay AID248 (DTP/NCI, 2004).
# Several values for one entry are separate records, joined by “and”; a condition that tells them apart may be missing. Equal values may be shown once. Inconclusive results and toxic doses are left out.
# System: L1210 leukemia ip in BDF1 mice, survival T/C
# Test: NCI In Vivo Anticancer Drug Screen. Data for tumor model L1210 Leukemia (intraperitoneal) in B6D2F1 (BDF1) mice
# Details: endpoint: mean survival time, higher = longer survival
# Summary of the method: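 Each compound was tested against a transplantable tumor grown in mice. The endpoint was survival, with treated animals benchmarked against vehicle controls as a simple ratio.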
# [1] = dose: 100.0 mg/kg/injection, schedule: Q01DX009 (ip), vehicle: Klucel (hydroxypropylcellulose) (HPC)
# [2] = dose: 200.0 mg/kg/injection, schedule: Q01DX009 (ip), vehicle: Klucel (hydroxypropylcellulose) (HPC)
compound,measurement,setting,value
O=C(O)CC(Sc1ccccc1)c1ccccc1 (stereo not drawn),T/C,"dose: 50.0 mg/kg/injection, schedule: Q01DX009 (ip), vehicle: Klucel (hydroxypropylcellulose) (HPC)",98 % of control
same,T/C,[1],101 % of control
same,T/C,"dose: 177.0 mg/kg/injection, schedule: Q04DX002 (ip), vehicle: saline",94 % of control
same,T/C,[2],96 % of control
same,T/C,"dose: 266.0 mg/kg/injection, schedule: Q04DX002 (ip), vehicle: saline",94 % of control
same,T/C,"dose: 400.0 mg/kg/injection, schedule: Q04DX002 (ip), vehicle: saline",105 % of control
same,T/C,"dose: 600.0 mg/kg/injection, schedule: Q04DX002 (ip), vehicle: saline",103 % of control
CC1(C)N=C(N)N=C(N)N1c1ccc(CCCCc2ccc(S(=O)(=O)F)cc2Cl)c(Cl)c1,T/C,"dose: 3.12 mg/kg/injection, schedule: Q01DX009 (ip), vehicle: Klucel (hydroxypropylcellulose) (HPC)",102 % of control
same,T/C,"dose: 3.12 mg/kg/injection, schedule: Q04DX003 (ip), vehicle: Klucel (hydroxypropylcellulose) (HPC)",97 % of control
same,T/C,"dose: 6.25 mg/kg/injection, schedule: Q01DX009 (ip), vehicle: Klucel (hydroxypropylcellulose) (HPC)",100 % of control
same,T/C,"dose: 6.25 mg/kg/injection, schedule: Q01DX009 (ip), vehicle: saline",116 % of control
same,T/C,"dose: 6.25 mg/kg/injection, schedule: Q04DX003 (ip), vehicle: Klucel (hydroxypropylcellulose) (HPC)",105 % of control
same,T/C,"dose: 7.26 mg/kg/injection, schedule: Q01DX009 (ip), vehicle: saline",111 % of control
same,T/C,"dose: 7.26 mg/kg/injection, schedule: Q04DX003 (ip), vehicle: saline",115 % of control
same,T/C,"dose: 10.89 mg/kg/injection, schedule: Q01DX009 (ip), vehicle: saline",117 % of control
same,T/C,"dose: 12.5 mg/kg/injection, schedule: Q01DX009 (ip), vehicle: Klucel (hydroxypropylcellulose) (HPC)",105 % of control
same,T/C,"dose: 12.5 mg/kg/injection, schedule: Q04DX003 (ip), vehicle: Klucel (hydroxypropylcellulose) (HPC)",105 % of control
same,T/C,"dose: 24.0 mg/kg/injection, schedule: Q01DX009 (ip), vehicle: saline with Tween-80",122 % of control
same,T/C,"dose: 25.0 mg/kg/injection, schedule: Q01DX009 (ip), vehicle: Klucel (hydroxypropylcellulose) (HPC)",107 % of control and 122 % of control
same,T/C,"dose: 25.0 mg/kg/injection, schedule: Q04DX003 (ip), vehicle: Klucel (hydroxypropylcellulose) (HPC)",115 % of control
same,T/C,"dose: 50.0 mg/kg/injection, schedule: Q04DX003 (ip), vehicle: Klucel (hydroxypropylcellulose) (HPC)",112 % of control
same,T/C,"dose: 75.0 mg/kg/injection, schedule: Q01DX009 (ip), vehicle: saline with Tween-80",98 % of control
same,T/C,"dose: 75.0 mg/kg/injection, schedule: Q01DX009 (ip), vehicle: saline",116 % of control
same,T/C,"dose: 100.0 mg/kg/injection, schedule: Q01DX009 (ip), vehicle: saline",88 % of control
same,T/C,"dose: 100.0 mg/kg/injection, schedule: Q04DX003 (ip), vehicle: Klucel (hydroxypropylcellulose) (HPC)",118 % of control
same,T/C,"dose: 150.0 mg/kg/injection, schedule: Q01DX009 (ip), vehicle: saline",96 % of control
same,T/C,"dose: 150.0 mg/kg/injection, schedule: Q04DX003 (ip), vehicle: saline with Tween-80",117 % of control
same,T/C,[2],109 % of control
same,T/C,"dose: 200.0 mg/kg/injection, schedule: Q04DX003 (ip), vehicle: saline",120 % of control
same,T/C,"dose: 300.0 mg/kg/injection, schedule: Q01DX009 (ip), vehicle: saline",98 % of control
same,T/C,"dose: 300.0 mg/kg/injection, schedule: Q04DX003 (ip), vehicle: Klucel (hydroxypropylcellulose) (HPC)",152 % of control
same,T/C,"dose: 300.0 mg/kg/injection, schedule: Q04DX003 (ip), vehicle: saline",152 % of control
same,T/C,"dose: 400.0 mg/kg/injection, schedule: Q04DX003 (ip), vehicle: Klucel (hydroxypropylcellulose) (HPC)",113 % of control
same,T/C,"dose: 450.0 mg/kg/injection, schedule: Q04DX003 (ip), vehicle: saline",111 % of control
O=C(c1ccccc1)C(Nc1nc2nc(-c3ccccc3)c(-c3ccccc3)n2[nH]1)c1ccccc1 (stereo not drawn),T/C,"dose: 100.0 mg/kg/injection, schedule: Q01DX005 (ip), vehicle: Klucel (hydroxypropylcellulose) (HPC)",98 % of control
same,T/C,[1],93 % of control
same,T/C,"dose: 100.0 mg/kg/injection, schedule: Q04DX002 (ip), vehicle: Klucel (hydroxypropylcellulose) (HPC)",101 % of control
same,T/C,"dose: 200.0 mg/kg/injection, schedule: Q01DX005 (ip), vehicle: Klucel (hydroxypropylcellulose) (HPC)",98 % of control
same,T/C,[2],93 % of control
same,T/C,"dose: 200.0 mg/kg/injection, schedule: Q04DX002 (ip), vehicle: Klucel (hydroxypropylcellulose) (HPC)",93 % of control
same,T/C,"dose: 400.0 mg/kg/injection, schedule: Q01DX005 (ip), vehicle: Klucel (hydroxypropylcellulose) (HPC)",98 % of control
same,T/C,"dose: 400.0 mg/kg/injection, schedule: Q01DX009 (ip), vehicle: Klucel (hydroxypropylcellulose) (HPC)",93 % of control
same,T/C,"dose: 400.0 mg/kg/injection, schedule: Q04DX002 (ip), vehicle: Klucel (hydroxypropylcellulose) (HPC)",96 % of control
